Results reported in ChEMBL document CHEMBL1201862, “PubChem BioAssay data set” (2004).
Blank lines part the entries; values can stand above or below the compound they belong to. Activity calls are given as the source filed them.

Key:
[1] = molecular target: T1, Serine/threonine-protein phosphatase (Candida dubliniensis (strain CD36 / CBS 7987 / NCPF 3949 / NRRLY-17841) (Yeast), UniProt B9W6M3); test: blockers of CaCl2-induced CDRE-lacZ signaling – S. cerevisiae, luminescence, secondary, dose response (AID 2388); format: functional, cell-based;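 note: yeast reporter cells carrying a calcineurin-responsive lacZ construct stimulated with calcium chloride; luminescent beta-galactosidase reporter signal in whole cells rather than isolated phosphatase activity; potency for inhibition where a drop in reporter signal means calcineurin blockade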
T1 sequence (B9W6M3 whole entry): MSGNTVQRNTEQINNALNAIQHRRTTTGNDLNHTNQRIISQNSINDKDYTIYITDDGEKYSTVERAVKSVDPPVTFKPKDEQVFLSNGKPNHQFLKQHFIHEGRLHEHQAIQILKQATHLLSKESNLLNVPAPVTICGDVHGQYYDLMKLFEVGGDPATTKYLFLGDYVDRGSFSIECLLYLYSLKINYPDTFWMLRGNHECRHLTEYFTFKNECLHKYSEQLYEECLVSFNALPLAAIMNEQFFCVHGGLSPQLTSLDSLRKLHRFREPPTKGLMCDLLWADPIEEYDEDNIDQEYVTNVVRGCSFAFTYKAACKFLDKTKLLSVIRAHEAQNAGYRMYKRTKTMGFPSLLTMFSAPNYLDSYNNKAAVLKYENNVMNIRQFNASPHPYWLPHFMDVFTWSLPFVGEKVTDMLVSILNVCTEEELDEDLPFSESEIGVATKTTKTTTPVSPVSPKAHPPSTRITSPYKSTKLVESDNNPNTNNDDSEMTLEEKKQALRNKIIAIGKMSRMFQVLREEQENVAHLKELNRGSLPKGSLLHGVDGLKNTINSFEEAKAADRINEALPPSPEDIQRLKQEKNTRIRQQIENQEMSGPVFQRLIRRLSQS

[2] = fluconazole-exposed Candida albicans growth modulators – fluorescence, retest, confirmation (AID 2467); format: functional, cell-based
H9c2 = test: cells; format: functional, cell-based; conditions: Rattus norvegicus, H9c2, Myocardium;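 note: confirmatory concentration-response retest of ultra-high-throughput screening hits for modulation of myocardial damage; cell death induced by hydrogen peroxide oxidative stress; compound pretreatment for 60 min then peroxide exposure for 2 h; potency is for protecting the cells against peroxide damage rather than for killing them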
[3] = Counterscreen for AddAB inhibitors: absorbance-based bacterial cell-based high throughput dose response assay for inhibitors of bacterial viability. [Related pubchem assays (depositor defined):AID435030, AID449728, AID449731, AID488942, AID488955, AID488956]; format: functional
[4] = molecular target: cAMP-dependent protein kinase catalytic subunit alpha (Homo sapiens, UniProt P17612); format: functional
[5] = molecular target: Vascular endothelial growth factor receptor 3 (Homo sapiens, UniProt P35916); format: functional;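 note: value from a kinome-wide profiling panel, with FLT4 as the panel member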
[6] = molecular target: Receptor-type tyrosine-protein kinase FLT3 (Homo sapiens, UniProt P36888); format: functional;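 note: FLT3 was tested as one member of a kinome-wide kinase panel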
[7] = molecular target: Serine/threonine-protein kinase PAK 1 (Homo sapiens, UniProt Q13153); format: functional
[8] = molecular target: Cyclin-dependent kinase 5 (Homo sapiens, UniProt Q00535); format: functional;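 note: CDK5 measured as one member of a kinase profiling panel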
[9] = molecular target: Serine/threonine-protein kinase Chk2 (Homo sapiens, UniProt O96017); format: functional;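 note: CHEK2 entry within a kinome-wide screening panel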
[10] = molecular target: Maternal embryonic leucine zipper kinase (Homo sapiens, UniProt Q14680); format: functional
[11] = molecular target: Serine/threonine-protein kinase PLK4 (Homo sapiens, UniProt O00444); format: functional;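 note: PLK4 measured as one member of a kinome-wide kinase profiling panel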
[12] = molecular target: Receptor tyrosine-protein kinase erbB-4 (Homo sapiens, UniProt Q15303); format: functional;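 note: ERBB4 member of a kinome-wide kinase profiling panel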
[13] = molecular target: Dual specificity tyrosine-phosphorylation-regulated kinase 1A (Homo sapiens, UniProt Q13627); format: functional;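 note: measured against DYRK1A as one member of a broad kinome profiling panel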
[14] = molecular target: Serine/threonine-protein kinase PAK 4 (Homo sapiens, UniProt O96013); format: functional;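 note: value obtained within a kinome profiling panel in which PAK4 was one of the panel members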
[15] = molecular target: Dual specificity protein kinase CLK2 (Homo sapiens, UniProt P49760); format: functional
[16] = molecular target: Serine/threonine-protein kinase pim-2 (Homo sapiens, UniProt Q9P1W9); format: functional;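 note: value comes from a broad kinase panel profiling study in which PIM2 was one of the panel members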
[17] = molecular target: MAP kinase-activated protein kinase 5 (Homo sapiens, UniProt Q8IW41); format: functional;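 note: measured as one member of a kinome panel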
[18] = molecular target: Calcium/calmodulin-dependent protein kinase type 1 (Homo sapiens, UniProt Q14012); format: functional
[19] = molecular target: Epidermal growth factor receptor (Homo sapiens, UniProt P00533)
Aurora kinase A = Aurora kinase A (Homo sapiens, UniProt O14965); format: functional;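 note: value from the Navigating the Kinome kinase panel profiling, panel entry STK6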
[20] = molecular target: MAP kinase-activated protein kinase 3 (Homo sapiens, UniProt Q16644); format: functional;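 note: value comes from a kinome-wide profiling panel in which MAPKAPK3 is one of the panel members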
[21] = molecular target: BDNF/NT-3 growth factors receptor (Homo sapiens, UniProt Q16620); format: functional;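 note: NTRK2 measured as one member of a broad kinome-wide kinase profiling panel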
[22] = molecular target: Tyrosine-protein kinase ITK/TSK (Homo sapiens, UniProt Q08881); format: functional;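 note: affinity for ITK measured as one member of a broad kinase panel profiling binding across the kinome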
[23] = molecular target: Mitogen-activated protein kinase 12 (Homo sapiens, UniProt P53778); format: functional;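 note: measured as one member of a kinome-wide kinase profiling panel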
[24] = molecular target: Insulin-like growth factor 1 receptor (Homo sapiens, UniProt P08069); test: Navigating the Kinome. Panel member name: IGF1R; format: functional
[25] = molecular target: Tyrosine-protein kinase JAK3 (Homo sapiens, UniProt P52333); format: functional
[26] = molecular target: Tyrosine-protein kinase FRK (Homo sapiens, UniProt P42685); format: functional;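 note: FRK tested as one member of a kinome panel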
[27] = molecular target: Serine/threonine-protein kinase MRCK alpha (Homo sapiens, UniProt Q5VT25); format: functional
[28] = molecular target: Tyrosine-protein kinase Srms (Homo sapiens, UniProt Q9H3Y6); format: functional;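 note: SRMS measured as one member of a kinome-wide kinase profiling panel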
Ephrin type-A receptor 2 = Ephrin type-A receptor 2 (Homo sapiens, UniProt P29317); format: functional;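 note: EPHA2 tested as one member of a kinome-wide kinase panel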
[29] = molecular target: Tyrosine-protein kinase Lyn (Homo sapiens, UniProt P07948); format: functional;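 note: lyn as one member of a kinase panel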
[30] = molecular target: Interleukin-1 receptor-associated kinase 4 (Homo sapiens, UniProt Q9NWZ3); format: functional
[31] = molecular target: Cell division cycle 7-related protein kinase (Homo sapiens, UniProt O00311); format: functional;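 note: value obtained from a kinome-wide kinase panel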
[32] = molecular target: Death-associated protein kinase 3 (Homo sapiens, UniProt O43293); format: functional;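 note: measured as one member of a kinome-wide profiling panel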
[33] = molecular target: Tyrosine-protein kinase Fer (Homo sapiens, UniProt P16591); format: functional;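 note: FER tested as one member of a kinome panel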
[34] = molecular target: Proto-oncogene tyrosine-protein kinase ROS (Homo sapiens, UniProt P08922); format: functional;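 note: ROS1 tested as one member of a kinome-wide kinase panel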
Chain of Proto-oncogene tyrosine-protein kinase ROS (P08922 whole entry): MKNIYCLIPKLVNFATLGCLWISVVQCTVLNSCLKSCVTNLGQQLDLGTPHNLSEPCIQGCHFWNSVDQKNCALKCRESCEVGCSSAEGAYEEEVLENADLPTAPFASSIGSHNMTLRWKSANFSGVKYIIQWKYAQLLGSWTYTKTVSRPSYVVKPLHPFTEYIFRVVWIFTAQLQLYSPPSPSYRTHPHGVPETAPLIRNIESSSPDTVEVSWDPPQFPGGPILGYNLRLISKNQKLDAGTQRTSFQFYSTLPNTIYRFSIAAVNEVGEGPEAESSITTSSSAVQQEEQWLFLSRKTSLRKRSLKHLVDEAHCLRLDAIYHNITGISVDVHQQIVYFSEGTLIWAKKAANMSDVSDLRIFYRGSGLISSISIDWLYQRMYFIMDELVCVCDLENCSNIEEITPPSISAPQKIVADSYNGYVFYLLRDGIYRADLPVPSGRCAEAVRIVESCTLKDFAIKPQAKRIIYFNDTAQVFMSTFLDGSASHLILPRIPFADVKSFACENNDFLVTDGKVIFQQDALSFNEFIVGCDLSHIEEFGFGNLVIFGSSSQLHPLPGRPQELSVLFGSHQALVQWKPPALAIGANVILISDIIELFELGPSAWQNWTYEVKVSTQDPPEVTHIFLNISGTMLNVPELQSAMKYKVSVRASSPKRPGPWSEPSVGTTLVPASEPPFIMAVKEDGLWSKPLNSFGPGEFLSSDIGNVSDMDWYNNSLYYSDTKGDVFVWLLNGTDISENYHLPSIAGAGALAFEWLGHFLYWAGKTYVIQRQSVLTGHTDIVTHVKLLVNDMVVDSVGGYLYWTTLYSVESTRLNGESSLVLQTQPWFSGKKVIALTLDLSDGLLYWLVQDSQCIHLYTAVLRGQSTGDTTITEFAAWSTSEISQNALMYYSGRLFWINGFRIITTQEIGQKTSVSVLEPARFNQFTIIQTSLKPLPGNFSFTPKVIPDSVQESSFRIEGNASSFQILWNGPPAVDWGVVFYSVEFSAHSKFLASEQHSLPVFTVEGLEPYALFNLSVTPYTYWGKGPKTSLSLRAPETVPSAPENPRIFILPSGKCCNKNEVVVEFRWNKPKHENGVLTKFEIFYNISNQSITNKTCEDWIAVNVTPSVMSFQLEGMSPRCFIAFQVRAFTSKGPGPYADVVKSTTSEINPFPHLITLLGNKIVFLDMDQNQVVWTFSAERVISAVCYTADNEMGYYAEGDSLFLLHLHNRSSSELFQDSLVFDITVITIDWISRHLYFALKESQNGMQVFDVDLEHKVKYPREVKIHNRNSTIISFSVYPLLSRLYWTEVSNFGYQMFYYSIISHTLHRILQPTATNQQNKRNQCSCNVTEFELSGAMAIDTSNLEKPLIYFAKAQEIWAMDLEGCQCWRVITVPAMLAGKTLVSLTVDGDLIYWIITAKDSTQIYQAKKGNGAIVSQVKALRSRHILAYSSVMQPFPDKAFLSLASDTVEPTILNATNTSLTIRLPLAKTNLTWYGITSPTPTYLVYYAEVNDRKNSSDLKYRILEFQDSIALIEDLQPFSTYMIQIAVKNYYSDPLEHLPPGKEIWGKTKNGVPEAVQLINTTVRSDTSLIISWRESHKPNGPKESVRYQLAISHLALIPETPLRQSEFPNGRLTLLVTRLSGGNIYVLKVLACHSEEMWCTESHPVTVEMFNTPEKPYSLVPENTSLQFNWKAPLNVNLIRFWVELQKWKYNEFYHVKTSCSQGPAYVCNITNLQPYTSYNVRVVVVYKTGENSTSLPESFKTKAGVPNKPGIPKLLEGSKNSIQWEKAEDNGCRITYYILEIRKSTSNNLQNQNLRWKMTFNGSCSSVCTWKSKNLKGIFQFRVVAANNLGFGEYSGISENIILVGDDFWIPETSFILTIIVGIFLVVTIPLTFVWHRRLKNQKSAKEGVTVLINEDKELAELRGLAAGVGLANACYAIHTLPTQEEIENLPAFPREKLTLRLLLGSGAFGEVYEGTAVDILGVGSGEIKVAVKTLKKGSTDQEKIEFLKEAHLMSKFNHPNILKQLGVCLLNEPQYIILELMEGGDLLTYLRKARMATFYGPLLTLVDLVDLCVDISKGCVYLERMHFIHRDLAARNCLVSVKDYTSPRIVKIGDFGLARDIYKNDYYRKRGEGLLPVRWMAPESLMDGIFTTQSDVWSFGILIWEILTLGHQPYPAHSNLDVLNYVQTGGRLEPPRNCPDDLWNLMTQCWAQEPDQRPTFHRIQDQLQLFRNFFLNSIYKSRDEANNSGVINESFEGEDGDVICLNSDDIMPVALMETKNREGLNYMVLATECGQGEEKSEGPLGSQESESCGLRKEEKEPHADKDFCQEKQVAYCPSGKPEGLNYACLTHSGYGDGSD

Chain of Epidermal growth factor receptor (P00533 whole entry): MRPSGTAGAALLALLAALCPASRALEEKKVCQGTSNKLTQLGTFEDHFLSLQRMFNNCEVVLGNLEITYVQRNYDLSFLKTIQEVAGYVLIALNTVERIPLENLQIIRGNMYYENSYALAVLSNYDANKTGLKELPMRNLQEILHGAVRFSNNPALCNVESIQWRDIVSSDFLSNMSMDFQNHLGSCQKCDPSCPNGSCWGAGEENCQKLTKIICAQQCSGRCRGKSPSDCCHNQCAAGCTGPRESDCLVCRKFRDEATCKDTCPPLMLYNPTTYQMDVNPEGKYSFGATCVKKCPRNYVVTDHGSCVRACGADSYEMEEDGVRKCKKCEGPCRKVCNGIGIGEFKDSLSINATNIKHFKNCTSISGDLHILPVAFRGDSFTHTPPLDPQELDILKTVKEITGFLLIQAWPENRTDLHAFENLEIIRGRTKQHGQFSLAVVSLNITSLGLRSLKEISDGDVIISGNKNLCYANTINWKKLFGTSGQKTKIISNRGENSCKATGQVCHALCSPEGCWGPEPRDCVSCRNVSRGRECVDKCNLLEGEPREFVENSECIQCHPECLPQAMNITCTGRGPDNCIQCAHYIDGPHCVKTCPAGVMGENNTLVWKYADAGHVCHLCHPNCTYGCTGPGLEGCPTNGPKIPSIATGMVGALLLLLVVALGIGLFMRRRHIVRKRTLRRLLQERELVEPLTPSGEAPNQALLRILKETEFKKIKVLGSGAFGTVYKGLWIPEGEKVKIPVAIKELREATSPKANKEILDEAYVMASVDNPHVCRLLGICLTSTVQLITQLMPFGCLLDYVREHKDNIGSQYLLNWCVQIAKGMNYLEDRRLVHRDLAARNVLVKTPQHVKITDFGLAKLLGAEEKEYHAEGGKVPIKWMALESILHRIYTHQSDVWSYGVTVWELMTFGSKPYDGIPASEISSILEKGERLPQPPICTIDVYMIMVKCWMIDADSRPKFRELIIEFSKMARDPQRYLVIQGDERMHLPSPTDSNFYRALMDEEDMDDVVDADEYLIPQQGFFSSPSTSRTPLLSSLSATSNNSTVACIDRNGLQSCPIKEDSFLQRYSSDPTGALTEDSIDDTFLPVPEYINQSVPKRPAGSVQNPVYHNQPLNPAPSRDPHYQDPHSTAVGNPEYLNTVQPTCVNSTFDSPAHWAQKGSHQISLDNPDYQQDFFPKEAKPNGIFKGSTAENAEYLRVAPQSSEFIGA
Chain of Serine/threonine-protein kinase Chk2 (O96017 whole entry): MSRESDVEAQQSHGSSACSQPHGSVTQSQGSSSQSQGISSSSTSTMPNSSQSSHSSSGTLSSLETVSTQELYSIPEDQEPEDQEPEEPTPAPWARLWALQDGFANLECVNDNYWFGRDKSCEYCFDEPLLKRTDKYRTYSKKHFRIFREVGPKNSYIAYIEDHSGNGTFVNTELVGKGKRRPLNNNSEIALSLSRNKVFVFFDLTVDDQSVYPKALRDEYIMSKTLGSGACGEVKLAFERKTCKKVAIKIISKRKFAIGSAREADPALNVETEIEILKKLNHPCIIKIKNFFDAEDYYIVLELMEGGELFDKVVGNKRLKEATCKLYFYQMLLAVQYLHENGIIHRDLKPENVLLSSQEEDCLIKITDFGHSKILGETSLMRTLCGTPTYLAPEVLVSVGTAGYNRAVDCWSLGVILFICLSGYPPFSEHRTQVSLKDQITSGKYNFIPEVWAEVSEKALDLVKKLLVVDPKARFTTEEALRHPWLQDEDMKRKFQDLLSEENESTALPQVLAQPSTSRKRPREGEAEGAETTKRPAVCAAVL
Chain of MAP kinase-activated protein kinase 3 (Q16644 whole entry): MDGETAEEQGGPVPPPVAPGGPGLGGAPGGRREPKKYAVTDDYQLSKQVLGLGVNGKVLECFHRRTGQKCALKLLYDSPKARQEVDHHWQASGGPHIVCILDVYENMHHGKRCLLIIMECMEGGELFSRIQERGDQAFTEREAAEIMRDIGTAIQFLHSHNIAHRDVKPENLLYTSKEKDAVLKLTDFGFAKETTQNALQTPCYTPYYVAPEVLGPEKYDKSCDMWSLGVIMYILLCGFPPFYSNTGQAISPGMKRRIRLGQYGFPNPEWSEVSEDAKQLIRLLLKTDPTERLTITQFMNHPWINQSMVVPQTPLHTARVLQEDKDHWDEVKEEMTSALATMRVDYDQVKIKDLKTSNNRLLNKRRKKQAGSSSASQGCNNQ
Chain of Calcium/calmodulin-dependent protein kinase type 1 (Q14012 whole entry): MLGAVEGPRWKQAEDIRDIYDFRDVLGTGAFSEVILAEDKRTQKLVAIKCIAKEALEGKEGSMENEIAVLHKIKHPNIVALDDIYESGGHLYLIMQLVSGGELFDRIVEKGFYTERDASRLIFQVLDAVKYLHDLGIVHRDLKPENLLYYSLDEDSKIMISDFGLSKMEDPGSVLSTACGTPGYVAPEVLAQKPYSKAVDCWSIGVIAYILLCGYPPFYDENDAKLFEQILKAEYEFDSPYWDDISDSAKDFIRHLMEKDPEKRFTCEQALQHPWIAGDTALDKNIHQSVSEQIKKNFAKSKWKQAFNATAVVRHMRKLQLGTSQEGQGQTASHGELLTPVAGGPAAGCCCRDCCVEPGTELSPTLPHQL

Compound: COc1ccc(-c2nnc(NC(=O)c3ccc(F)cc3)o2)cc1
EC50 [1]: > 180 µM (inactive) | EC50 [2]: 0.305 µM (active) | IC50 (H9c2): > 79 µM (inactive) | IC50 [3]: > 118 µM (inactive)

Ki [4]: 0.0316 µM (active) | Ki [5]: 3.16 µM (active) | Ki [6]: 1.58 µM (active) | Ki [7]: > 10 µM (inactive) | Ki [8]: > 10 µM (inactive) | Ki [9]: > 1.58 µM (inactive) | Ki [10]: > 1.58 µM (inactive) | Ki [11]: 0.316 µM (active) | Ki [12]: > 3.98 µM (inactive) | Ki [13]: > 6.31 µM (inactive) | Ki [14]: > 5.01 µM (inactive) | Ki [15]: > 7.94 µM (inactive) | Ki [16]: > 1.58 µM (inactive) | Ki [17]: > 1.58 µM (inactive) | Ki [18]: > 5.01 µM (inactive) | Ki [19]: > 2 µM (inactive) | Ki (Aurora kinase A): 0.501 µM (active) | Ki [20]: > 10 µM (inactive) | Ki [21]: > 5.01 µM (inactive) | Ki [22]: > 1.58 µM (inactive) | Ki [23]: > 6.31 µM (inactive) | Ki [24]: > 2 µM (inactive) | Ki [25]: > 1.58 µM (inactive) | Ki [26]: > 2.51 µM (inactive) | Ki [27]: 0.158 µM (active) | Ki [28]: > 1.58 µM (inactive) | Ki (Ephrin type-A receptor 2): > 3.16 µM (inactive) | Ki [29]: > 1.58 µM (inactive) | Ki [30]: > 10 µM (inactive) | Ki [31]: 0.0794 µM (active) | Ki [33]: > 1.58 µM (inactive) | Ki [34]: > 2 µM (inactive)
Compound: CCn1c(-c2nonc2N)nc2cnc(Oc3cccc(NC(=O)c4ccc(OCCN5CCOCC5)cc4)c3)cc21 [GSK-269962A]
Ki [32]: 0.501 µM (active)
